These results are taken from patent US20250101485A1, “METHODS OF PRODUCING C[…] ACID WHEY” (priority 2022, published 2025).

“Also recorded” adds a separate entry of the source.

Assay [1] concerns the target T1, lycopene cyclase (CarRP) (Mucor circinelloides f. lusitanicus, UniProt Q9UUQ6).
T1 construct: made in house; host or cells: Yarrowia lipolytica (po1f-derived strains); crude microsomal fraction
Briefly: In vitro enzymatic assay of lycopene cyclase in yeast microsomes. To be noted: wild type CarRP (or CarR); lycopene 50˜350 mol/L as substrate, 30° C., 16 h. In kind it is biochemical. The protocol: (§1) To test this hypothesis, possible correlations between lycopene cyclase activity and lycopene concentration were examined using an in vitro enzymatic assay that employed a yeast microsomal system, as CarRP is predicted to be a membrane protein with six transmembrane helices (FIG. 26). […] This supported the hypothesis that lycopene cyclase was substrate-inhibited, thus creating a major bottleneck in carotenoid biosynthesis.
(§2) Yeast microsomes for in vitro enzymatic assays were prepared as described previously (Pompon et al., 1996). Briefly, strains harboring wild type or mutated CarRP were grown overnight in YNB media at 30° C. and then inoculated into 200 mL YNB media to an initial OD600 of 0.1. After 24 h cultivation, cells were collected by centrifugation at 4,000 rpm for 10 min. Resuspension of the cells in TEK buffer (50 mM Tris-HCl, pH 6.8, 1 mM EDTA, 0.1 M KCl) followed, and the solution was kept at room temperature for 5 min. Afterwards, the cells were recovered by centrifugation, washed in TES buffer (50 mM Tris-HCl, pH 6.8, 1 mM EDTA, 0.6 M sorbitol), resuspended in TESM buffer (50 mM Tris-HCl, pH 6.8, 1 mM EDTA, 0.6 M sorbitol, 14 mM 2-mercaptoethanol), and left at room temperature for 10 min. […] The solution was vortex for 10 min, and the organic phase was collected by centrifugation and analyzed by HPLC.

For assay [2], the target named is T2, lycopene cyclase (CarRP) (Mucor circinelloides f. lusitanicus, UniProt Q9UUQ6, Y27R).
T2 construct: made in house; host or cells: Yarrowia lipolytica (po1f-derived strains); crude microsomal fraction
Described as above. The assay is classed as biochemical. The conditions noted are these: CarRP (or CarR) variant compared to wild type; relative catalytic activity, FIG. 16D. The method, then:
as §1, §2

T2 sequence (Q9UUQ6 whole entry Y27R): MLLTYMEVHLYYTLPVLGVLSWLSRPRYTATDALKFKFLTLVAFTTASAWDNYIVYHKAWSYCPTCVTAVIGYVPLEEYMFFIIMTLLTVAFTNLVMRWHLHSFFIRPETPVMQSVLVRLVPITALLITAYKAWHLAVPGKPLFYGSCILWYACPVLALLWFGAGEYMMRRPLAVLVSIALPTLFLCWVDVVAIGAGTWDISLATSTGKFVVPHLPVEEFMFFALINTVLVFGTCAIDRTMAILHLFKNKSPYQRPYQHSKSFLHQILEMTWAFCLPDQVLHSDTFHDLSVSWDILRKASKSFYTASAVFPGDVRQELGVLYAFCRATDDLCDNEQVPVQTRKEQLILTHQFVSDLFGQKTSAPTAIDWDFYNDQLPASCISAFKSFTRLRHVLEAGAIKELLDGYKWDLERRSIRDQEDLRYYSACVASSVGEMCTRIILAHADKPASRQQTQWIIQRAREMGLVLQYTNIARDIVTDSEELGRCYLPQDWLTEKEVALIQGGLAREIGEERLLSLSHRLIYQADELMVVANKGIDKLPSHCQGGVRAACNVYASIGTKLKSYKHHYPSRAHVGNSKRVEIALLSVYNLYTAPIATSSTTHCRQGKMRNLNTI
T1 sequence (Q9UUQ6 whole entry): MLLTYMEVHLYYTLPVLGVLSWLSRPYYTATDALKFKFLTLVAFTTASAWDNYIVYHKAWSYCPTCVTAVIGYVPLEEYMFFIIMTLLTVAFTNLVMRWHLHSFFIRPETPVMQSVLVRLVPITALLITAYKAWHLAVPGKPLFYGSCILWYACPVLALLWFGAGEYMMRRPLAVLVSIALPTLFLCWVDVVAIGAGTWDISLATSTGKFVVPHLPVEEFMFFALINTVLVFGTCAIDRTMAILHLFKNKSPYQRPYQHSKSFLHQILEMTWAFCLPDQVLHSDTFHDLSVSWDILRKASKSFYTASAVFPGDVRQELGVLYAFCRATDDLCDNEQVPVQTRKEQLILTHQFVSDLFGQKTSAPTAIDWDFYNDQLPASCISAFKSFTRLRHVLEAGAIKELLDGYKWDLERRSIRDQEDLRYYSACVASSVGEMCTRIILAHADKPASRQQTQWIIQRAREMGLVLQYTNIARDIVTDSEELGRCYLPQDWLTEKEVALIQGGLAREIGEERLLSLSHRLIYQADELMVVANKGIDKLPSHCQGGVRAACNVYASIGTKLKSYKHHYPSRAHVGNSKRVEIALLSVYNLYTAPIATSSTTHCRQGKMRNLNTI

On to `CC(C)=CCC/C(C)=C/C=C/C(C)=C/C=C/C(C)=C/C=C/C=C(C)/C=C/C=C(C)/C=C/C=C(\C)CCC=C(C)C` [lycopene], for which, on lycopene cyclase (CarRP) [1], the “lycopene cyclase activity with respect to lycopene concentration (substrate inhibition)” value is given as “bi-phasic; also recorded: inhibited its downstream enzyme, lycopene cyclase, through substrate inhibition”.

B1: Y27R: variant of the R domain (lycopene cyclase) of CarRP with the substitution Y27R (protein)
chain: MLLTYMEVHLYYTLPVLGVLSWLSRPRYTATDALKFKFLTLVAFTTASAWDNYIVYHKAWSYCPTCVTAVIGYVPLEEYMFFIIMTLLTVAFTNLVMRWHLHSFFIRPETPVMQSVLVRLVPITALLITAYKAWHLAVPGKPLFYGSCILWYACPVLALLWFGAGEYMMRRPLAVLVSIALPTLFLCWVDVVAIGAGTWDISLATSTGKFVVPHLPVEEFMFFALINTVLVFGTCAI
B1: the “substrate inhibition of lycopene cyclase variant by lycopene” value with lycopene cyclase (CarRP) [2] is “complete loss of substrate inhibition without reduction in enzyme activity; also recorded: completely free of substrate inhibition”.
